Experimental data taken from US20230346745A1, “AGENT FOR PREVENTING OR TREATING TAUOPATHY” (FUJIFILM Toyama Chemical Co., Ltd., priority 2017, published 2023).

What was measured:
Assay type in all cases: in vivo, human
Aβ = experiment: Phase II placebo-controlled trial: concentration of Aβ in cerebrospinal fluid (overall statement); conditions: Compound A group compared to the placebo group; mild to moderate AD patients
Description: Test Example 1 Multicenter randomized double-blind phase II placebo-controlled trial for assessing effectiveness and safety of Compound A in mild to moderate AD patients Subject (selection criteria): Patients were screened in a period from 42 days before treatment assignment to the assignment based on the following selection criteria. • Patients who were probable AD and are 55 years old or older and 85 years old or younger at the time of obtaining consent of screening. • Patients with an MMSE score of 12 to 22 at the time of screening • Patients with a Modified Hachinski Ischemia Scale score of 4 or less • Patients who have been treated with a donepezil hydrochloride or rivastigmine transdermal system for at least 4 months before the baseline and with a stable dose thereof for 3 months before the baseline. • In the case of patients who have received memantine in addition to being treated with a donepezil hydrochloride or rivastigmine transdermal system, patients who have been treated with memantine for at least 4 months before the baseline and with a stable dose thereof for 3 months before the baseline. • Patients whose brain MRI or CT results match AD at the time of screening Organization of groups: Patients matched (484 patients) were randomly divided into the following 3 groups and the trial was started. […]

[1] = test system: phosphorylated tau protein (p-Tau); experiment: Phase II placebo-controlled trial: cerebrospinal fluid biomarker p-Tau (ELISA); conditions: for p-Tau change at week 52 from baseline, difference from placebo group / p-Tau change at week 52 from baseline, least square means (standard error): CSF
Description: (§1) Test Example 1 Multicenter randomized double-blind phase II placebo-controlled trial for assessing effectiveness and safety of Compound A in mild to moderate AD patients Subject (selection criteria): Patients were screened in a period from 42 days before treatment assignment to the assignment based on the following selection criteria. • Patients who were probable AD and are 55 years old or older and 85 years old or younger at the time of obtaining consent of screening. • Patients with an MMSE score of 12 to 22 at the time of screening • Patients with a Modified Hachinski Ischemia Scale score of 4 or less • Patients who have been treated with a donepezil hydrochloride or rivastigmine transdermal system for at least 4 months before the baseline and with a stable dose thereof for 3 months before the baseline. • In the case of patients who have received memantine in addition to being treated with a donepezil hydrochloride or rivastigmine transdermal system, patients who have been treated with memantine for at least 4 months before the baseline and with a stable dose thereof for 3 months before the baseline. • Patients whose brain MRI or CT results match AD at the time of screening Organization of groups: Patients matched (484 patients) were randomly divided into the following 3 groups and the trial was started. (1) High dose group: 224 mg of a test compound (160 mg in terms of Compound A) was orally administered once a day for 4 weeks and then 448 mg of a test compound (320 mg in terms of Compound A) was orally administered once a day for 48 weeks (158 patients) (2) Low dose group: 224 mg of a test compound (160 mg in terms of Compound A) was orally administered once a day for 52 weeks (166 patients) (3) Placebo group: placebo was orally administered once a day for 52 weeks (158 patients) Method of assessment: Cerebrospinal fluid biomarker
(§2) Cerebrospinal fluid was collected by lumber puncture from subjects at baseline (within 2 weeks before the first day of administration of investigational drug) and after 52 weeks (within 2 weeks before week 52), and divided into 9-ml aliquots in polyethylene tubes and stored at -80° C. The total tau protein concentration (total-Tau) in the cerebrospinal fluid was measured by an ECL method. The phosphorylated tau protein concentration (p-Tau) was measured by ELISA method. The Aβ-42 value in the cerebrospinal fluid was measured by sandwich ELIZA which has been designed for measurement of AP including 1 amino acid and 42 amino acids.
(§3) Change in cerebrospinal fluid (CSF) biomarkers at week 52 from the baseline was compared by analysis of covariance between a high dose group and a placebo group, and between a low dose group and the placebo group. For models, the baseline of cerebrospinal fluid (CSF) biomarkers was included as a covariate and the significance level was 5%.

p-Tau/total-Tau = experiment: Phase II placebo-controlled trial: ratio p-Tau/total-Tau in cerebrospinal fluid; conditions: CSF, AD patients; for p-Tau/total-Tau change at week 52 from baseline, difference from placebo group / p-Tau/total-Tau change at week 52 from baseline, least square means (standard error): First total-Tau measurement (Table 2); for p-Tau/total-Tau (remeasured total-Tau) change at week 52 from baseline, difference from placebo group / p-Tau/total-Tau (remeasured total-Tau) change at week 52 from baseline, least square means (standard error): Total-Tau concentration remeasured (Table 3)
Description: as §1, §2
(§4) The total-Tau concentration was measured twice using the same cerebrospinal fluid sample.
as §3

[2] = test system: total tau protein (total-Tau); experiment: Phase II placebo-controlled trial: cerebrospinal fluid biomarker total-Tau (ECL method, measured twice); conditions: CSF, AD patients; for total-Tau change at week 52 from baseline, difference from placebo group / total-Tau change at week 52 from baseline, least square means (standard error): First measurement (Table 2); for total-Tau (remeasured) change at week 52 from baseline, difference from placebo group / total-Tau (remeasured) change at week 52 from baseline, least square means (standard error): Total-Tau concentration remeasured (Table 3)
Description: as §1, §2, §4, §3

Aβ-38 = experiment: Phase II placebo-controlled trial: cerebrospinal fluid biomarker Aβ-38; conditions: CSF, mild to moderate AD patients
Description: as §1, §2
(§5) Change in cerebrospinal fluid (CSF) biomarkers at week 52 from the baseline was compared by analysis of covariance between a high dose group and a placebo group, and between a low dose group and the placebo group. […]

Aβ-40 = experiment: Phase II placebo-controlled trial: cerebrospinal fluid biomarker Aβ-40; conditions: CSF, mild to moderate AD patients
Description: as §1, §2, §5

Aβ-42 = experiment: Phase II placebo-controlled trial: cerebrospinal fluid biomarker Aβ-42 (sandwich ELISA); conditions: CSF, mild to moderate AD patients
Description: as §1, §2, §5

[3] = High dose group: 160 mg 4 weeks then 320 mg 48 weeks in terms of Compound A, oral once a day, mild to moderate AD patients
[4] = Low dose group: 160 mg in terms of Compound A, oral once a day 52 weeks, mild to moderate AD patients
[5] = High dose group: 160 mg 4 weeks then 320 mg 48 weeks in terms of Compound A, oral once a day
[6] = Low dose group: 160 mg in terms of Compound A, oral once a day 52 weeks

Compound: OC1CN(CCCOCCc2ccc3sccc3c2)C1 [Compound A, 1-(3-(2-(1-benzothiophen-5-yl)ethoxy)propyl)azetidin-3-ol]
- change in the concentration of AP in the cerebrospinal fluid at week 52 from the baseline (Aβ): tended to be increased in a dose dependent manner
- change in the concentration of p-Tau in the cerebrospinal fluid at week 52 from the baseline ([1]; Compound A group compared to the placebo group, mild to moderate AD patients): consistently tended to be decreased in a dose-dependent manner
- change in the concentration of p-Tau in the cerebrospinal fluid at week 52 from the baseline, statistical comparison ([1]; Compound A high dose group versus placebo group, analysis of covariance, significance level 5%): statistically significant difference
- p-Tau change at week 52 from baseline, difference from placebo group [1, 3]: -7.59 pg/mL
- p-Tau change at week 52 from baseline, least square means (standard error) [1, 3]: −7.30(2.281) pg/mL
- p-Tau change at week 52 from baseline, difference from placebo group [1, 4]: -4.23 pg/mL
- p-Tau change at week 52 from baseline, least square means (standard error) [1, 4]: −3.94(2.715) pg/mL
- p-Tau/total-Tau change at week 52 from baseline, difference from placebo group (p-Tau/total-Tau; [5]): −11.11%
- p-Tau/total-Tau change at week 52 from baseline, least square means (standard error) (p-Tau/total-Tau; [5]): −4.47(3.21) %
- p-Tau/total-Tau change at week 52 from baseline, difference from placebo group (p-Tau/total-Tau; [6]): −4.60%
- p-Tau/total-Tau change at week 52 from baseline, least square means (standard error) (p-Tau/total-Tau; [6]): 2.04(4.33) %
- p-Tau/total-Tau (remeasured total-Tau) change at week 52 from baseline, difference from placebo group (p-Tau/total-Tau; [5]): 0.26%
- p-Tau/total-Tau (remeasured total-Tau) change at week 52 from baseline, least square means (standard error) (p-Tau/total-Tau; [5]): 0.04(0.17) %
- p-Tau/total-Tau (remeasured total-Tau) change at week 52 from baseline, difference from placebo group (p-Tau/total-Tau; [6]): 0.03%
- p-Tau/total-Tau (remeasured total-Tau) change at week 52 from baseline, least square means (standard error) (p-Tau/total-Tau; [6]): −0.20(0.20) %
- total-Tau change at week 52 from baseline, difference from placebo group [2, 5]: 81.94 pg/mL
- total-Tau change at week 52 from baseline, least square means (standard error) [2, 5]: 11.38(47.304) pg/mL
- total-Tau change at week 52 from baseline, difference from placebo group [2, 6]: 28.19 pg/mL
- total-Tau change at week 52 from baseline, least square means (standard error) [2, 6]: −42.36(63.947) pg/mL
- total-Tau (remeasured) change at week 52 from baseline, difference from placebo group [2, 5]: -129.57 pg/mL
- total-Tau (remeasured) change at week 52 from baseline, least square means (standard error) [2, 5]: −101.35 (32.552) pg/mL
- total-Tau (remeasured) change at week 52 from baseline, difference from placebo group [2, 6]: -36.10 pg/mL
- total-Tau (remeasured) change at week 52 from baseline, least square means (standard error) [2, 6]: −7.88 (38.632) pg/mL
- Aβ-38 change at week 52 from baseline, difference from placebo group (Aβ-38; [5]): 525.66 pg/mL
- Aβ-38 change at week 52 from baseline, least square means (standard error) (Aβ-38; [5]): 178.64(221.978) pg/mL
- Aβ-38 change at week 52 from baseline, difference from placebo group (Aβ-38; [6]): 127.43 pg/mL
- Aβ-38 change at week 52 from baseline, least square means (standard error) (Aβ-38; [6]): −219.58(266.774) pg/mL
- Aβ-40 change at week 52 from baseline, difference from placebo group (Aβ-40; [5]): 1206.87 pg/mL
- Aβ-40 change at week 52 from baseline, least square means (standard error) (Aβ-40; [5]): 290.84(466.956) pg/mL
- Aβ-40 change at week 52 from baseline, difference from placebo group (Aβ-40; [6]): 75.71 pg/mL
- Aβ-40 change at week 52 from baseline, least square means (standard error) (Aβ-40; [6]): −840.32(559.467) pg/mL
- Aβ-42 change at week 52 from baseline, difference from placebo group (Aβ-42; [5]): 32.90 pg/mL
- Aβ-42 change at week 52 from baseline, least square means (standard error) (Aβ-42; [5]): 11.55(25.578) pg/mL
- Aβ-42 change at week 52 from baseline, difference from placebo group (Aβ-42; [6]): 11.65 pg/mL
- Aβ-42 change at week 52 from baseline, least square means (standard error) (Aβ-42; [6]): −9.70(30.362) pg/mL
